Like-named read-outs stand apart in the source and are kept apart here.
Tests used:
[1] = biological target: histone deacetylase activity (HeLa nuclear extract); assay: HDAC fluorescent activity assay (Fluor de Lys, Biomol); type: biochemical
In short: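 HeLa nuclear extract as HDAC source incubated with acetyl-lysine Fluor de Lys substrate ± inhibitor; developer then releases fluorophore from deacetylated substrate. Activity as % of vehicle control after no-enzyme background subtraction; IC50 from eight-point variable-slope sigmoidal fit.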

HUT78 cells = assay: HUT cell inhibition assay (WST-1 cell viability); type: cell-based; conditions: Homo sapiens
In short: (§1)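 Log-phase cells seeded at 1000-2000/well, grown 24 h, then exposed to compound for 72-96 h before WST-1 viability readout. Eight concentrations (top 10 μM final, 3-fold steps), 6 replicates; % inhibition versus DMSO, IC50 by sigmoidal variable-slope fit.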

HeLa cells = assay: HeLa cell inhibition assay (sulphorhodamine B cell viability); type: cell-based; conditions: Homo sapiens, IC50 allocated to ranges
Method: HeLa cells growing in log phase were harvested and seeded at 1000 cells/well (200 μl final volume) into 96-well tissue culture plates. Following 24 h of cell growth cells were treated with compounds (final concentration of 20 μM). Plates were then re-incubated for a further 72 h before a sulphorhodamine B (SRB) cell viability assay was conducted according to the methodology described by Skehan et al, J. Natl. Canc. Inst., 1990, 82, 1107-1112.
Data were expressed as a percentage inhibition of the control, measured in the absence of inhibitor, as follows:— % inhibition=100−[(S^i/S^o)×100] where S^i is the signal in the presence of inhibitor and S^o is the signal in the presence of DMSO.
IC50 values were determined by non-linear regression analysis, after fitting the results of eight data points to the equation for sigmoidal dose response with variable slope (% activity against log concentration of Compound), using Graphpad Prism software.

U937 cells = assay: U937 cell inhibition assay (WST-1 cell viability); type: cell-based; conditions: for IC50: Homo sapiens, U-937
In short: as §1

[2] = IC50 allocated to ranges, read-out: HDAC activity
[3] = HUT78 cells, IC50 allocated to ranges, read-out: HUT activity
[4] = U937 cells, IC50 allocated to ranges, read-out: U937 activity

SMILES	IC50 [1, 2] [nM]	IC50 (HeLa cells) [nM]	IC50 (U937 cells; [4]) [nM]	IC50 ([1]; read-out: Inhibition of HDAC (IC50-nM)) [nM]	IC50 (U937 cells; U937 monocytic cell line, read-out: Inhibition of U937 cell proliferation (IC50-nM)) [nM]	IC50 (HUT78 cells; [3]) [nM]	IC50 (HUT78 cells; HUT78 non-monocytic cell line, read-out: Inhibition of HUT78 cell proliferation (IC50-nM)) [nM]	fold more potent as anti-proliferative agent than belinostat (U937 cells; monocytic cell line U937, versus belinostat) [fold]
CC(C)(C)OC[C@@H](NCc1ccc(/C=C/C(=O)NO)cc1)C(=O)OC1CCCC1 [Example 20, Cyclopentyl O-tert-butyl-N-{4-[(1E)-3-(hydroxyamino)-3-oxoprop-1-en-1-yl]benzyl}-D-serinate]	101 to 1000	> 3300	< 330			331 to 3300		
CC(C)C[C@@H](NCc1ccc(/C=C/C(=O)NO)cc1)C(=O)OC1CCCC1 [Example 18, Cyclopentyl N-{4-[(1E)-3-(hydroxyamino)-3-oxoprop-1-en-1-yl]benzyl}-D-leucinate]	101 to 1000	> 3300	331 to 3300			331 to 3300		
O=C(/C=C/c1ccc(CN[C@H](C(=O)OC2CCCC2)C2CCCCC2)cc1)NO [Example 14, Cyclopentyl (2S)-cyclohexyl({4-[(1E)-3-(hydroxyamino)-3-oxoprop-1-en-1-yl]benzyl}amino)acetate]	< 100	331 to 3300	< 330	59	5	< 330	230	30
O=C(/C=C/c1ccc(OCCCN[C@H](C(=O)OC2CCCC2)C2CCCCC2)cc1)NO [Example 9, Cyclopentyl (2S)-cyclohexyl[(3-{4-[(1E)-3-(hydroxyamino)-3-oxoprop-1-en-1-yl]phenoxy}propyl)amino]acetate]	> 1000	> 3300	> 3300			> 3300		
CCOC(=O)[C@@H](NCc1ccc(/C=C/C(=O)NO)cc1)C1CCCCC1 [Example 21, Ethyl (2S)-cyclohexyl({4-[(1E)-3-(hydroxyamino)-3-oxoprop-1-en-1-yl]benzyl}amino)acetate]	< 100	331 to 3300	< 330			< 330		
O=C(/C=C/c1cccc(CN[C@H](C(=O)OC2CCCC2)C2CCCCC2)c1)NO [Example 12, Cyclopentyl (2S)-cyclohexyl({3-[(1E)-3-(hydroxyamino)-3-oxoprop-1-en-1-yl]benzyl}amino)acetate]	101 to 1000	> 3300	331 to 3300			331 to 3300		
CC(C)(C)OC[C@H](NCc1ccc(/C=C/C(=O)NO)cc1)C(=O)OC1CCCC1 [Example 16, Cyclopentyl O-tert-butyl-N-{4-[(1E)-3-(hydroxyamino)-3-oxoprop-1-en-1-yl]benzyl}-L-serinate]	101 to 1000	> 3300	331 to 3300			331 to 3300		
CC(C)C[C@H](NCCCOc1ccc(/C=C/C(=O)NO)cc1)C(=O)OC1CCCC1 [Example 11, Cyclopentyl N-(3-{4-[(1E)-3-(hydroxyamino)-3-oxoprop-1-en-1-yl]phenoxy}propyl)-L-leucinate]	101 to 1000	> 3300	331 to 3300			331 to 3300		
O=C(/C=C/c1cccc(S(=O)(=O)N[C@H](C(=O)OC2CCCC2)C2CCCCC2)c1)NO [Example 2, Cyclopentyl (2S)-cyclohexyl[({3-[(1E)-3-(hydroxyamino)-3-oxoprop-1-en-1-yl]phenyl}sulfonyl)amino]acetate]	< 100	331 to 3300	331 to 3300			331 to 3300		
O=C(/C=C/c1cccc(CN[C@H](C(=O)OC2CCCC2)c2ccccc2)c1)NO [Example 13, Cyclopentyl (2S)-({3-[(1E)-3-(hydroxyamino)-3-oxoprop-1-en-1-yl]benzyl}amino)(phenyl)acetate]	> 1000	> 3300	> 3300			331 to 3300		
CC(C)(C)OC[C@H](NS(=O)(=O)c1cccc(/C=C/C(=O)NO)c1)C(=O)OC1CCCC1 [Example 4, Cyclopentyl O-tert-butyl-N-({3-[(1E)-3-(hydroxyamino)-3-oxoprop-1-en-1-yl]phenyl}sulfonyl)-L-serinate]	< 100	331 to 3300	331 to 3300			331 to 3300		
O=C(/C=C/c1cccc(S(=O)(=O)N[C@H](C(=O)OC2CCCC2)c2ccccc2)c1)NO [Example 1, cyclopentyl (2S)-[({3-[(1E)-3-(hydroxyamino)-3-oxoprop-1-en-1-yl]phenyl}sulfonyl)amino](phenyl)acetate]	101 to 1000	> 3300	> 3300			> 3300		

The next lines start with results.

IC50 [1, 2] [nM]	IC50 (HeLa cells) [nM]	IC50 (U937 cells; [4]) [nM]	IC50 ([1]; read-out: Inhibition of HDAC (IC50-nM)) [nM]	IC50 (U937 cells; U937 monocytic cell line, read-out: Inhibition of U937 cell proliferation (IC50-nM)) [nM]	SMILES	IC50 (HUT78 cells; [3]) [nM]	IC50 (HUT78 cells; HUT78 non-monocytic cell line, read-out: Inhibition of HUT78 cell proliferation (IC50-nM)) [nM]	fold more potent as anti-proliferative agent than belinostat (U937 cells; monocytic cell line U937, versus belinostat) [fold]
101 to 1000	331 to 3300	< 330			CC1CCCC1OC(=O)[C@@H](NCc1ccc(/C=C/C(=O)NO)cc1)C1CCCCC1 (stereo partly drawn) [Example 27, 2-Methylcyclopentyl (2S)-cyclohexyl({4-[(1E)-3-(hydroxyamino)-3-oxoprop-1-en-1-yl]benzyl}amino)acetate]	331 to 3300		
< 100	331 to 3300	< 330			O=C(/C=C/c1ccc(CN[C@H](C(=O)OCCN2CCOCC2)C2CCCCC2)cn1)NO [Example 56, 2-Morpholin-4-ylethyl (2S)-cyclohexyl[({6-[(1E)-3-(hydroxyamino)-3-oxoprop-1-en-1-yl]pyridin-3-yl}methyl)amino]acetate]	< 330		
< 100	> 3300	< 330			CN(C)CCOC(=O)[C@@H](NCc1ccc(/C=C/C(=O)NO)nc1)C1CCCCC1 [Example 57, 2-(Dimethylamino)ethyl (2S)-cyclohexyl[({6-[(1E)-3-(hydroxyamino)-3-oxoprop-1-en-1-yl]pyridin-3-yl}methyl)amino]acetate]	< 330		
< 100	331 to 3300	< 330			C=CCOC(=O)[C@@H](NCc1ccc(/C=C/C(=O)NO)cc1)C1CCCCC1 [Example 25, Allyl (2S)-cyclohexyl({4-[(1E)-3-(hydroxyamino)-3-oxoprop-1-en-1-yl]benzyl}amino)acetate]	331 to 3300		
101 to 1000	331 to 3300	< 330			CC(C)(C)OC[C@H](NCc1ccc(CNCc2ccc(/C=C/C(=O)NO)cc2)cc1)C(=O)OC1CCCC1 [Example 75, Cyclopentyl O-tert-butyl-N-{4-[({4-[(1E)-3-(hydroxyamino)-3-oxoprop-1-en-1-yl]benzyl}amino)methyl]benzyl}-L-serinate]	< 330		
> 1000	> 3300	< 330			CC(C)C[C@H](NCc1ccc(CCC(=O)NO)cc1)C(=O)OCCN1CCOCC1 [Example 35, 2-Morpholin-4-ylethyl N-{4-[3-(hydroxyamino)-3-oxopropyl]benzyl}-L-leucinate]	331 to 3300		
< 100	331 to 3300	< 330			O=C(/C=C/c1ccc(CN[C@H](C(=O)OC2CC3CCC2C3)C2CCCCC2)cn1)NO (stereo partly drawn) [Example 58, Bicyclo[2.2.1]hept-2-yl (2S)-cyclohexyl[({6-[(1E)-3-(hydroxyamino)-3-oxoprop-1-en-1-yl]pyridin-3-yl}methyl)amino]acetate]	< 330		
101 to 1000	331 to 3300	< 330			O=C(/C=C/c1ccc(CN2CCC(N[C@H](C(=O)OC3CCCC3)C3CCCCC3)CC2)cc1)NO [Example 80, Cyclopentyl (2S)-cyclohexyl[(1-{4-[(1E)-3-(hydroxyamino)-3-oxoprop-1-en-1-yl]benzyl}piperidin-4-yl)amino]acetate]	< 330		

From patent publication US9273003B2, “Methods of treating lymphoma and rheumatoid arthritis with cyclopentyl (2S)-cyclohexyl[({6-[3-(hydroxyamino)-3-oxopropyl]pyridin-3-yl}methyl)amino]acetate” (GlaxoSmithKline Intellectual Property Development Limited, priority 2006, dated 2016)
